Experimental data: US20230416168A1 (EUROCHEM ANTWERPEN, priority 2020, published 2023)

Columns and labels:
[1] = test system: Moorslede soil; assay: Greenhouse gas emissions from soil fertilized with ammonium, Moorslede soil
Procedure: (§1) Two agricultural soils coming from fields in Moorslede and Sint-Laureins were used. Screw top vials were filled with 10 g soil. Vials were sealed with Parafilm and preincubated at 21° C. in the dark for 5 days. After pre-incubation, vials were ventilated using a fan. The 100 μL of a 1 mM compound solution (10% DMSO) was added, immediately followed by the addition of 100 μL 200 mM NH4Cl. Vials were closed gastight and 5 mL synthetic air was added to the headspace using a plastic syringe, followed by the transfer of 5 mL headspace to an evacuated 3 mL exetainer. Vials were incubated at 21° C. in the dark and background NO concentration was noted. At each sampling timepoint, 5 mL synthetic air was added again to the headspace using a plastic syringe, again followed by the transfer of 5 mL headspace to an evacuated 3 mL exetainer. Vials were ventilated and closed again, and new gas samples were transferred to texetainers like before. N2O, CO2, CH4 in the exetainers were measured via gas chromatography. NO concentration was measured directly.
(§2) To further confirm the inhibitory effect of the new class of nitrification inhibitors on nitrogen losses, gas emissions from soil fertilized with ammonium and treated with 1,3-thiazolidine-2-thione were captured. NO, N2O, CO2 and CH4 was measured.

[2] = test system: Sint-Laureins soil; assay: Greenhouse gas emissions from soil fertilized with ammonium, Sint-Laureins soil
Procedure: as §1, §2

[3] = test system: Moorslede soil; assay: In soil nitrification inhibition assay, Moorslede soil; conditions: soil, 120 h; 20 μM; 5 days; read-out: Average % nitrification inhibition in soil (5 days of incubation, Moorslede soil) at 20 μM
Procedure: Top layer (0 to 10 cm) soil samples were collected from different fields in Belgium (Merelbeke and Moorslede). Vegetation on the field trial was removed and samples were taken from different plots. All soil samples were mixed and sieved (mesh size 2.8 mm) to filter large debris and homogenize soil. The soil was stored at 5° C. in plastic containers covered with Saran foil to prevent changes in microbial community composition and to maintain the original soil water content.
Soil water content was determined by drying 20 g soil for 48 h in a 60° C. oven and measuring weight before and after drying. Based on the soil water content (±20%), compound solutions were prepared so that addition of 200 μl compound and 200 μl NH4Cl solution would result in a final compound concentration of 50 μM and a final NH4^+ concentration of 10 mM. Per treatment, 5 small pots were filled with 20 g soil. Next, the soil was treated first with the respective compound solution and then with the NH4Cl solution. Per tray, positive (50 μM DMP) and negative controls (DMSO) were included. Pots were incubated at 21° C. (6 a.m. to 10 p.m. light) for 7 days. Demineralized water was added to the soil every 2 to 3 days to a soil weight of 20 g. In the end, each sample of 20 g soil was dissolved in 100 ml 1M KCl and shaken for 1 hour, followed by filtration through Whatmann® paper. The filtrate was used to measure pH, NH4^+ and NO3− concentrations.
A set of examples was tested in the same conditions (Moorslede soil, 3 days of incubation) at a concentration of 50 μM.
Another set of examples was tested in different concentrations in Moorslede soil as well, and were sampled after 5 days.
The effect of 3H-1,3-thiazole-2-thione was tested in soil in accordance with the test described above in section 3.3.

For `S=C1NCCS1` [Example 3, 1,3-thiazolidine-2-thione], which “Cumulative emission at indicated timepoint [ppm]” value (shortened to “Cumulative emission”) ([1]; CH4, 4 h) is on record?
Its value is 0.20 ppm.

And the “Cumulative emission” value ([1]; CH4, 24 h)?
Its value is 0.38 ppm.

And the “Cumulative emission” value ([1]; CH4, 48 h)?
The value was 0.38 ppm.

And the “Cumulative emission” value ([1]; CH4, 72 h)?
Its value is 0.51 ppm.

What about the “Cumulative emission” value ([1]; CH4, 99 h) of the same compound?
The value was 0.51 ppm.

What about the “Cumulative emission” value ([1]; CO2, 4 h) of the same compound?
Its value is 619 ppm.

What about the “Cumulative emission” value ([1]; CO2, 24 h) of the same compound?
The value was 2385 ppm.

What about the “Cumulative emission” value ([1]; CO2, 48 h) of the same compound?
Its value is 4261 ppm.

What about the “Cumulative emission” value ([1]; CO2, 72 h) of the same compound?
Its value is 6195 ppm.

And the “Cumulative emission” value ([1]; CO2, 99 h)?
Its value is 8131 ppm.

What about the “Cumulative emission” value ([1]; N2O, 4 h) of the same compound?
The value was 0 ppm.

And the “Cumulative emission” value ([1]; N2O, 24 h)?
Its value is 0 ppm.

What about the “Cumulative emission” value ([1]; N2O, 48 h) of the same compound?
Its value is 0 ppm.

What about the “Cumulative emission” value ([1]; N2O, 72 h) of the same compound?
The value was 0 ppm.

What about the “Cumulative emission” value ([1]; N2O, 99 h) of the same compound?
The value was 0 ppm.

What about the “Cumulative emission” value ([1]; NO, 4 h) of the same compound?
The value was 25 ppm.

What about the “Cumulative emission” value ([1]; NO, 24 h) of the same compound?
The value was 28 ppm.

What about the “Cumulative emission” value ([1]; NO, 48 h) of the same compound?
The value was 43 ppm.

What about the “Cumulative emission” value ([1]; NO, 72 h) of the same compound?
Its value is 65 ppm.

What about the “Cumulative emission” value ([1]; NO, 99 h) of the same compound?
The value was 65 ppm.

What about the “effect on CH4 emission, in words” value ([1]; cumulative, incubation of 99 h) of the same compound?
Its value is “No significant effects”.

And the “effect on CO2 emission, in words” value ([1]; cumulative, incubation of 99 h)?
Its value is “strongly reduced”.

And the “effect on N2O emission, in words” value ([1]; cumulative, incubation of 99 h)?
Its value is “strongly reduced”.

And the “effect on NO emission, in words” value ([1]; cumulative, incubation of 99 h)?
Its value is “strongly reduced”.

What about the “Cumulative emission” value ([2]; CH4, 4 h) of the same compound?
Its value is 0.00 ppm.

What about the “Cumulative emission” value ([2]; CH4, 24 h) of the same compound?
The value was 0.10 ppm.

What about the “Cumulative emission” value ([2]; CH4, 48 h) of the same compound?
Its value is 0.16 ppm.

What about the “Cumulative emission” value ([2]; CH4, 72 h) of the same compound?
Its value is 0.25 ppm.

What about the “Cumulative emission” value ([2]; CH4, 99 h) of the same compound?
Its value is 0.25 ppm.

And the “Cumulative emission” value ([2]; CO2, 4 h)?
Its value is 372 ppm.

And the “Cumulative emission” value ([2]; CO2, 24 h)?
The value was 1179 ppm.

What about the “Cumulative emission” value ([2]; CO2, 48 h) of the same compound?
The value was 2094 ppm.

What about the “Cumulative emission” value ([2]; CO2, 72 h) of the same compound?
Its value is 3101 ppm.

And the “Cumulative emission” value ([2]; CO2, 99 h)?
The value was 4168 ppm.

What about the “Cumulative emission” value ([2]; N2O, 4 h) of the same compound?
The value was 0 ppm.

And the “Cumulative emission” value ([2]; N2O, 24 h)?
Its value is 0 ppm.

What about the “Cumulative emission” value ([2]; N2O, 48 h) of the same compound?
The value was 1 ppm.

And the “Cumulative emission” value ([2]; N2O, 72 h)?
Its value is 1 ppm.

And the “Cumulative emission” value ([2]; N2O, 99 h)?
The value was 2 ppm.

And the “Cumulative emission” value ([2]; NO, 4 h)?
The value was 17 ppm.

And the “Cumulative emission” value ([2]; NO, 24 h)?
Its value is 52 ppm.

And the “Cumulative emission” value ([2]; NO, 48 h)?
Its value is 86 ppm.

And the “Cumulative emission” value ([2]; NO, 72 h)?
The value was 140 ppm.

And the “Cumulative emission” value ([2]; NO, 99 h)?
The value was 161 ppm.

What about the “effect on CH4 emission, in words” value ([2]; cumulative, incubation of 99 h) of the same compound?
Its value is “No significant effects”.

What about the “effect on CO2 emission, in words” value ([2]; cumulative, incubation of 99 h) of the same compound?
The value was “strongly reduced”.

And the “effect on N2O emission, in words” value ([2]; cumulative, incubation of 99 h)?
The value was “strongly reduced”.

And the “effect on NO emission, in words” value ([2]; cumulative, incubation of 99 h)?
The value was “strongly reduced”.

What about the inhibition at 20 µM [3] of the same compound?
Its inhibition at 20 µM is 7%.
